# Columns and labels:
# [1] = system: TK-10; assay: Antiproliferative activity against human TK10 cells assessed as growth inhibition after 48 hrs by sulforhodamine B assay; type: functional; conditions: TK-10, 48 h
# [2] = system: MDA-MB-231; assay: Antiproliferative activity against human MDA-MB-231/ATCC cells assessed as growth inhibition after 48 hrs by sulforhodamine B assay; type: functional; conditions: MDA-MB-231, 48 h
# [3] = system: MCF7; assay: Antiproliferative activity against human MCF7 cells assessed as growth inhibition after 48 hrs by sulforhodamine B assay; type: functional; conditions: MCF7, 48 h
# [4] = system: SN12C; assay: Antiproliferative activity against human SN12C cells assessed as growth inhibition after 48 hrs by sulforhodamine B assay; type: functional
# [5] = system: RXF 393; assay: Antiproliferative activity against human RXF393 cells assessed as growth inhibition after 48 hrs by sulforhodamine B assay; type: functional; conditions: RXF 393, 48 h
# [6] = system: CAKI-1; assay: Antiproliferative activity against human CAKI-1 cells assessed as growth inhibition after 48 hrs by sulforhodamine B assay; type: functional; conditions: CAKI-1, 48 h
# [7] = system: A498; assay: Antiproliferative activity against human A498 cells assessed as growth inhibition after 48 hrs by sulforhodamine B assay; type: functional; conditions: A498, 48 h
# [8] = system: OVCAR-8; assay: Antiproliferative activity against human OVCAR8 cells assessed as growth inhibition after 48 hrs by sulforhodamine B assay; type: functional; conditions: OVCAR-8, 48 h
# [9] = system: OVCAR-5; assay: Antiproliferative activity against human OVCAR5 cells assessed as growth inhibition after 48 hrs by sulforhodamine B assay; type: functional; conditions: OVCAR-5, 48 h
# [10] = system: OVCAR-4; assay: Antiproliferative activity against human OVCAR4 cells assessed as growth inhibition after 48 hrs by sulforhodamine B assay; type: functional; conditions: OVCAR-4, 48 h
# [11] = system: UACC-62; assay: Antiproliferative activity against human UACC62 cells assessed as growth inhibition after 48 hrs by sulforhodamine B assay; type: functional; conditions: UACC-62, 48 h
# [12] = system: UACC-257; assay: Antiproliferative activity against human UACC257 cells assessed as growth inhibition after 48 hrs by sulforhodamine B assay; type: functional; conditions: UACC-257, 48 h
# [13] = system: SK-MEL-28; assay: Antiproliferative activity against human SK-MEL-28 cells assessed as growth inhibition after 48 hrs by sulforhodamine B assay; type: functional; conditions: SK-MEL-28, 48 h
# [14] = system: M14; assay: Antiproliferative activity against human M14 cells assessed as growth inhibition after 48 hrs by sulforhodamine B assay; type: functional; conditions: M14, 48 h
# [15] = system: SF-539; assay: Antiproliferative activity against human SF539 cells assessed as growth inhibition after 48 hrs by sulforhodamine B assay; type: functional; conditions: SF-539, 48 h
# [16] = system: SW-620; assay: Antiproliferative activity against human SW620 cells assessed as growth inhibition after 48 hrs by sulforhodamine B assay; type: functional; conditions: SW-620, 48 h
# [17] = system: HCT-116; assay: Antiproliferative activity against human HCT116 cells assessed as growth inhibition after 48 hrs by sulforhodamine B assay; type: functional; conditions: HCT-116, 48 h
# [18] = system: COLO 205; assay: Antiproliferative activity against human COLO205 cells assessed as growth inhibition after 48 hrs by sulforhodamine B assay; type: functional; conditions: COLO 205, 48 h
# [19] = system: NCI-H522; assay: Antiproliferative activity against human NCI-H522 cells assessed as growth inhibition after 48 hrs by sulforhodamine B assay; type: functional; conditions: NCI-H522, 48 h
# [20] = system: NCI-H23; assay: Antiproliferative activity against human NCI-H23 cells assessed as growth inhibition after 48 hrs by sulforhodamine B assay; type: functional; conditions: NCI-H23, 48 h
# [21] = system: NCI-H226; assay: Antiproliferative activity against human NCI-H226 cells assessed as growth inhibition after 48 hrs by sulforhodamine B assay; type: functional; conditions: NCI-H226, 48 h
# [22] = system: HOP-62; assay: Antiproliferative activity against human HOP62 cells assessed as growth inhibition after 48 hrs by sulforhodamine B assay; type: functional; conditions: HOP-62, 48 h
# [23] = system: SR; assay: Antiproliferative activity against human SR cells assessed as growth inhibition after 48 hrs by sulforhodamine B assay; type: functional
# [24] = system: RPMI-8226; assay: Antiproliferative activity against human RPMI8226 cells assessed as growth inhibition after 48 hrs by sulforhodamine B assay; type: functional; conditions: RPMI-8226, 48 h
# [25] = system: K562; assay: Antiproliferative activity against human K562 cells assessed as growth inhibition after 48 hrs by sulforhodamine B assay; type: functional, cell-based; conditions: K562, 48 h, read-out: IC50
# [26] = system: BT-549; assay: Antiproliferative activity against human BT549 cells assessed as growth inhibition after 48 hrs by sulforhodamine B assay; type: functional; conditions: BT-549, 48 h
# [27] = system: T47D; assay: Antiproliferative activity against human T47D cells assessed as growth inhibition after 48 hrs by sulforhodamine B assay; type: functional
# [28] = system: MDA-MB-468; assay: Antiproliferative activity against human MDA-MB-468 cells assessed as growth inhibition after 48 hrs by sulforhodamine B assay; type: functional; conditions: MDA-MB-468, 48 h
# [29] = Haemolytic activity in human erythrocytes assessed as induction of hemolysis at 10 mM after 30 mins relative to H202; type: cell-based, Erythrocyte; conditions: read-out: Activity
# [30] = Haemolytic activity in human erythrocytes assessed as induction of hemolysis at 5 mM after 30 mins relative to H202; type: cell-based, Erythrocyte; conditions: read-out: Activity
# [31] = Haemolytic activity in human erythrocytes assessed as induction of hemolysis at 2.5 mM after 30 mins relative to H202; type: cell-based, Erythrocyte; conditions: erythrocytes, read-out: Activity
# [32] = Antioxidant activity assessed as DPPH radical scavenging activity incubated in dark for 30 mins by spectrophotometric method relative to control; type: functional; set-up: concentration or dose not given beside the values
# [33] = Antioxidant activity assessed as ABTS radical scavenging activity by spectrophotometric analysis relative to control; type: functional; set-up: concentration or dose not given beside the values; conditions: dose or concentration not given here
# [34] = Antioxidant activity assessed as ABTS radical scavenging activity by spectrophotometric method relative to ascorbic acid; type: functional
# [35] = system: HCT-116; assay: Induction of apoptosis in human HCT116 cells assessed as increase in caspase 3 mRNA expression at 100 nM after 6 hrs hrs by SYBR green dye-based qRT-PCR analysis relative to control; type: functional
# [36] = system: HCT-116; assay: Induction of apoptosis in human HCT116 cells assessed as increase in p53 mRNA expression at 100 nM after 6 hrs hrs by SYBR green dye-based qRT-PCR analysis relative to control; type: functional
# [37] = system: HOP-92; assay: Antiproliferative activity against human HOP92 cells assessed as growth inhibition after 48 hrs by sulforhodamine B assay; type: functional; conditions: HOP-92, 48 h
Compound,GI50 [1] [nM],GI50 [2] [nM],GI50 [3] [nM],GI50 [4] [nM],GI50 [5] [nM],GI50 [6] [nM],GI50 [7] [nM],GI50 [8] [nM],GI50 [9] [nM],GI50 [10] [nM],GI50 [11] [nM],GI50 [12] [nM],GI50 [13] [nM],GI50 [14] [nM],GI50 [15] [nM],GI50 [16] [nM],GI50 [17] [nM],GI50 [18] [nM],GI50 [19] [nM],GI50 [20] [nM],further results
COc1ccc(-c2ccc(-c3ccc(C(=N)N)o3)o2)cc1,7970,1900,330,2020,2120,1750,1760,3190,2430,2220,1290,11100,1670,1470,1890,530,1070,1250,1090,4340,"GI50 [21]: 22000 nM; GI50 [22]: 1500 nM; GI50 [23]: 420 nM; GI50 [24]: 2680 nM; IC50 [25]: 490 nM; GI50 [26]: 4550 nM; GI50 [27]: 1530 nM; GI50 [28]: 860 nM; hemolysis at 0.5 h, 10000 µM [29]: 71.7%; hemolysis at 0.5 h, 5000 µM [30]: 36.3%; hemolysis at 0.5 h, 2500 µM [31]: 8.1%; inhibition [32]: 61.7%; inhibition [33]: 69.2%; fold change (FC) [34]: 0.7; fold change (FC) [35]: 2.67; fold change (FC) [36]: 0.94"
N=C(N)c1ccc(-c2ccc(-c3ccc(F)cc3)s2)s1,1720,1740,1150,1980,1750,1680,1950,2230,1700,1680,1940,2190,1730,1890,1670,1740,1730,1320,1820,1800,"GI50 [21]: 1420 nM; GI50 [22]: 1640 nM; GI50 [23]: 1170 nM; GI50 [24]: 2100 nM; IC50 [25]: 1210 nM; GI50 [26]: 1890 nM; GI50 [27]: 1740 nM; GI50 [28]: 2040 nM; hemolysis at 0.5 h, 10000 µM [29]: 93.3%; hemolysis at 0.5 h, 5000 µM [30]: 59.7%; hemolysis at 0.5 h, 2500 µM [31]: 14%; inhibition [32]: 44.8%; inhibition [33]: 49.7%; fold change (FC) [34]: 0.5; fold change (FC) [35]: 3.71; fold change (FC) [36]: 1.06"
N=C(N)c1ccc(-c2ccc(-c3ccc(F)cc3)o2)o1,1550,1570,680,1800,1600,1710,1900,1980,1660,1620,1740,1980,1630,1230,1630,940,1180,1600,1360,1930,"GI50 [21]: 2820 nM; GI50 [37]: 1210 nM; GI50 [22]: 1600 nM; GI50 [24]: 2480 nM; IC50 [25]: 490 nM; GI50 [26]: 2270 nM; GI50 [28]: 1360 nM; hemolysis at 0.5 h, 10000 µM [29]: 90%; hemolysis at 0.5 h, 5000 µM [30]: 66.3%; hemolysis at 0.5 h, 2500 µM [31]: 17.6%; inhibition [32]: 9.9%; inhibition [33]: 13.2%; fold change (FC) [34]: 0.1; fold change (FC) [35]: 3.88; fold change (FC) [36]: 0.96"
COc1cc(-c2ccc(-c3ccc(C(=N)N)s3)s2)cc(OC)c1OC,2700,1880,1660,1610,1660,1700,2250,2620,1470,1820,1700,2220,1580,1700,1580,1910,1730,2130,1940,2610,"GI50 [21]: 1880 nM; GI50 [37]: 1140 nM; GI50 [22]: 1970 nM; GI50 [23]: 1830 nM; GI50 [24]: 2460 nM; IC50 [25]: 1110 nM; GI50 [26]: 1770 nM; GI50 [27]: 1700 nM; GI50 [28]: 1820 nM; hemolysis at 0.5 h, 10000 µM [29]: 79.7%; hemolysis at 0.5 h, 5000 µM [30]: 38.7%; hemolysis at 0.5 h, 2500 µM [31]: 11.3%; inhibition [32]: 64.1%; inhibition [33]: 75.4%; fold change (FC) [34]: 0.8; fold change (FC) [35]: 2.67; fold change (FC) [36]: 1.01"
N=C(N)c1ccc(-c2ccc(-c3ccc(Cl)cc3)s2)s1,1960,1800,1290,1910,1710,1610,13000,2480,1580,1670,1800,2780,1680,1710,1630,1740,1740,1440,1830,1620,"GI50 [21]: 2190 nM; GI50 [37]: 1810 nM; GI50 [22]: 1750 nM; GI50 [23]: 320 nM; GI50 [24]: 2040 nM; IC50 [25]: 670 nM; GI50 [26]: 2110 nM; GI50 [27]: 1550 nM; GI50 [28]: 1980 nM; hemolysis at 0.5 h, 10000 µM [29]: 81.7%; hemolysis at 0.5 h, 5000 µM [30]: 49%; hemolysis at 0.5 h, 2500 µM [31]: 14.3%; inhibition [32]: 72.9%; inhibition [33]: 81.2%; fold change (FC) [34]: 0.9; fold change (FC) [35]: 3; fold change (FC) [36]: 0.89"
N=C(N)c1ccc(-c2ccc(-c3ccccc3)o2)o1,3320,2040,1680,3120,2330,3400,3030,4000,2700,3480,1930,2520,1900,1620,1950,1790,2070,1780,1940,5780,"GI50 [21]: 5700 nM; GI50 [37]: 1850 nM; GI50 [22]: 3590 nM; GI50 [24]: 2890 nM; IC50 [25]: 660 nM; GI50 [26]: 4130 nM; GI50 [28]: 1640 nM; hemolysis at 0.5 h, 10000 µM [29]: 66.7%; hemolysis at 0.5 h, 5000 µM [30]: 30.1%; hemolysis at 0.5 h, 2500 µM [31]: 7%; inhibition [32]: 30.9%; inhibition [33]: 41.3%; fold change (FC) [34]: 0.4; fold change (FC) [35]: 2.33; fold change (FC) [36]: 0.95"
